Values of other authors as cited in paper PMC10205807, “Cross-species comparison in nonclinical pharmacokinetics of lenvatinib by a simple HPLC with ultraviolet detection” (Scientific Reports, 2023).
Where two headings read alike, the source gives them in different places.

What was measured:
[1] = design: method as in PMID 30514402; conditions: mice; cited from earlier work
[2] = design: method as in PMID 30514402; conditions: dogs; cited from earlier work
[3] = design: method as in PMID 30514402; conditions: monkeys; cited from earlier work
[4] = design: method as in PMID 29620050; conditions: male rats, intravenous; cited from earlier work
[5] = design: method as in PMID 29620050; conditions: dogs, intravenous; cited from earlier work
[6] = design: method as in PMID 28115222; conditions: mice; cited from earlier work
[7] = design: method as in PMID 28115222; conditions: rats; cited from earlier work
[8] = design: method as in PMID 28115222; conditions: dogs; cited from earlier work

Structure (SMILES): Cc1cn(-c2cc(NC(=O)c3ccc(C)c(Nc4nccc(-c5cccnc5)n4)c3)cc(C(F)(F)F)c2)cn1 [nilotinib]
- CLtot [1]: 2.18 mL/min/kg
- Oral bioavailability [1]: 50%
- Vdss [1]: 0.29 L/kg
- CLtot [2]: 3.17 mL/min/kg
- Oral bioavailability [2]: 24%
- Vdss [2]: 1.157 L/kg
- CLtot [3]: 10.6 mL/min/kg
- Oral bioavailability [3]: 16%
- Vdss [3]: 5.737 L/kg

Structure (SMILES): COc1cc2c(Oc3ccc4[nH]c(C)cc4c3F)ccnc2cc1OCC1(N)CC1 [anlotinib]
- CLtot [4]: 106 mL/min/kg
- Vdss [4]: 25.4 L/kg
- CLtot [5]: 6.33 mL/min/kg
- Vdss [5]: 6.8 L/kg

Structure (SMILES): CCOc1cc2ncc(C#N)c(Nc3ccc(OCc4ccccn4)c(Cl)c3)c2cc1NC(=O)/C=C/[C@H]1CCCN1C [pyrotinib]
- CLtot [6]: 37.2 mL/min/kg
- F [6]: 20.6%
- Vdss [6]: 5.027 L/kg
- CLtot [7]: 3.5 mL/min/kg
- F [7]: 43.5%
- Vdss [7]: 1.35 L/kg
- CLtot [8]: 28 mL/min/kg
- F [8]: 20.0%
- Vdss [8]: 8.157 L/kg
